Measurements from PubChem BioAssay (NCI).
Several values for one entry are separate records, joined by “and”; a condition that tells them apart may be missing. Equal values may be shown once.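 96-well plates; 48 h exposure; 5 concentrations. Endpoints by linear interpolation between flanking doses. Not reached: highest tested concentration assigned. GI50 is the concentration that inhibits growth by half. At the TGI there is no net growth.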

Tests used:
Test in all cases: NCI-60 cell line screen, 48 h
786-0 renal = test system: 786-0 renal
A549 NSCLC = test system: A549 NSCLC
HOP-92 NSCLC = test system: HOP-92 NSCLC
K-562 leukemia = test system: K-562 leukemia
NCI-H226 lung = test system: NCI-H226 lung
NCI/ADR-RES ovarian = test system: NCI/ADR-RES ovarian
SF-268 CNS = test system: SF-268 CNS
SK-OV-3 ovarian = test system: SK-OV-3 ovarian
TK-10 renal = test system: TK-10 renal
UACC-257 melanoma = test system: UACC-257 melanoma

## O=C1CC2OCC=C3CN4CCC5(C(=O)O)C(N1)C2C3CC45 (stereo not given)
786-0 renal
  TGI: > 100 µM
A549 NSCLC
  TGI: > 100 µM
HOP-92 NSCLC
  TGI: > 100 µM
K-562 leukemia
  TGI: > 100 µM
NCI-H226 lung
  TGI: > 100 µM
NCI/ADR-RES ovarian
  TGI: > 100 µM
SF-268 CNS
  TGI: > 100 µM
SK-OV-3 ovarian
  TGI: > 100 µM
TK-10 renal
  TGI: > 100 µM
UACC-257 melanoma
  TGI: > 100 µM

## C=Cc1cc(OC)c2c(c1)c(=O)oc1c2cc(OC)c2c(O)ccc(C3OC(C(C)O)C(O)C3O)c21 (stereo not given)
786-0 renal
  GI50: 0.00336 µM
  TGI: 0.0192 µM
A549 NSCLC
  GI50: 0.0146 µM
  TGI: 0.414 µM
HOP-92 NSCLC
  GI50: 0.0126 µM
  TGI: 0.3 µM
K-562 leukemia
  GI50: 0.00355 µM
  TGI: 0.126 µM
NCI-H226 lung
  GI50: 0.023 µM
  TGI: 0.099 µM
NCI/ADR-RES ovarian
  GI50: 0.012 µM
  TGI: 0.271 µM
SF-268 CNS
  GI50: 0.00456 µM
  TGI: 0.117 µM
SK-OV-3 ovarian
  GI50: 0.0165 µM
  TGI: 0.718 µM
TK-10 renal
  GI50: 0.0223 µM
  TGI: 0.318 µM
UACC-257 melanoma
  GI50: 0.0269 µM
  TGI: 0.0805 µM

## COc1ccc(/C=C/C(=O)c2ccc(Nc3nc(Nc4ccc(F)cc4)nc(Nc4ccc(F)cc4)n3)cc2)cc1
786-0 renal
  GI50: 6.03 µM
  TGI: 26.9 µM
A549 NSCLC
  GI50: 10.1 µM
  TGI: 34 µM
HOP-92 NSCLC
  GI50: 8.8 µM
  TGI: 31.4 µM
K-562 leukemia
  GI50: 4.07 µM
  TGI: > 100 µM
NCI-H226 lung
  GI50: 19.8 µM
  TGI: 65.7 µM
NCI/ADR-RES ovarian
  GI50: 5.63 µM
  TGI: 33 µM
SF-268 CNS
  GI50: 22.5 µM
  TGI: 94.6 µM
SK-OV-3 ovarian
  GI50: 17.1 µM
  TGI: 88.4 µM
TK-10 renal
  GI50: 11.8 µM
  TGI: 42.7 µM
UACC-257 melanoma
  GI50: 19 µM
  TGI: 76.4 µM

## CC(C)OP(=O)(OC(C)C)/C(C#N)=C/c1c[nH]c2ccccc12
786-0 renal
  TGI: > 100 µM
A549 NSCLC
  TGI: > 100 µM
HOP-92 NSCLC
  TGI: > 100 µM
K-562 leukemia
  TGI: > 100 µM
NCI-H226 lung
  TGI: > 100 µM
NCI/ADR-RES ovarian
  TGI: > 100 µM
SF-268 CNS
  TGI: > 100 µM
SK-OV-3 ovarian
  TGI: > 100 µM
TK-10 renal
  TGI: > 100 µM
UACC-257 melanoma
  TGI: > 100 µM

## NC1=C(O)C(=O)C(c2c[nH]c3ccc(OCc4ccccc4)cc23)O1 (stereo not given)
786-0 renal
  TGI: > 100 µM
A549 NSCLC
  TGI: > 100 µM
HOP-92 NSCLC
  TGI: > 100 µM
K-562 leukemia
  TGI: > 100 µM
NCI-H226 lung
  TGI: > 100 µM
NCI/ADR-RES ovarian
  TGI: > 100 µM
SF-268 CNS
  TGI: > 100 µM
SK-OV-3 ovarian
  TGI: > 100 µM
TK-10 renal
  TGI: > 100 µM
UACC-257 melanoma
  TGI: > 100 µM

## Cc1c(C2CCSc3ccccc3N2)sc2ccccc12 (stereo not given)
786-0 renal
  TGI: > 100 µM
A549 NSCLC
  TGI: > 100 µM
HOP-92 NSCLC
  TGI: > 100 µM
K-562 leukemia
  TGI: > 100 µM
NCI-H226 lung
  TGI: > 100 µM
NCI/ADR-RES ovarian
  TGI: > 100 µM
SF-268 CNS
  TGI: > 100 µM
SK-OV-3 ovarian
  TGI: > 100 µM
TK-10 renal
  TGI: > 100 µM
UACC-257 melanoma
  TGI: > 100 µM

## O=[N+]([O-])c1ccc2nc(-c3ccc(Cl)cc3)[nH]c2c1
786-0 renal
  TGI: > 100 µM
A549 NSCLC
  TGI: 70.5 µM
HOP-92 NSCLC
  TGI: 64.2 µM
NCI-H226 lung
  TGI: 58 µM
NCI/ADR-RES ovarian
  TGI: 57.6 µM
SF-268 CNS
  TGI: 37.5 µM
SK-OV-3 ovarian
  TGI: 60.4 µM
TK-10 renal
  TGI: 72.5 µM
UACC-257 melanoma
  TGI: 43.2 µM

## O=C1C=CC(=O)c2c(O)c(N(CCCl)CCCl)c(Cl)c(O)c21
786-0 renal
  TGI: > 7.67 µM
A549 NSCLC
  TGI: > 10 µM
HOP-92 NSCLC
  TGI: 5.78 µM
K-562 leukemia
  TGI: > 10 µM
NCI-H226 lung
  TGI: > 10 µM
NCI/ADR-RES ovarian
  TGI: > 10 µM
SF-268 CNS
  TGI: > 8.4 µM
SK-OV-3 ovarian
  TGI: > 10 µM
TK-10 renal
  TGI: 4.93 µM
UACC-257 melanoma
  TGI: 5.23 µM

## CNC(=O)c1cc(-c2ccc(F)cc2)cc(-c2ccc(S(=O)(=O)N3CCCC3)cc2)c1N
786-0 renal
  GI50: 24.4 µM
  TGI: > 25 µM
A549 NSCLC
  GI50: 11.9 µM
  TGI: > 25 µM
HOP-92 NSCLC
  GI50: 4.9 µM
  TGI: > 25 µM
K-562 leukemia
  GI50: 20.4 µM
  TGI: > 25 µM
NCI-H226 lung
  GI50: > 25 µM
  TGI: > 25 µM
NCI/ADR-RES ovarian
  GI50: 16.2 µM
  TGI: > 25 µM
SF-268 CNS
  GI50: > 25 µM
  TGI: > 25 µM
SK-OV-3 ovarian
  GI50: > 25 µM
  TGI: > 25 µM
TK-10 renal
  GI50: > 25 µM
  TGI: > 25 µM
UACC-257 melanoma
  GI50: > 22.6 µM
  TGI: > 25 µM

## CCN(CC)CCNc1ccc([N+](=O)[O-])c2nc3ccc(OC)cc3c(N)c12
786-0 renal
  TGI: 1.66 µM
A549 NSCLC
  TGI: 2.79 µM
HOP-92 NSCLC
  TGI: 3.19 µM
K-562 leukemia
  TGI: 0.665 µM
NCI-H226 lung
  TGI: 4.41 µM
NCI/ADR-RES ovarian
  TGI: 3.53 µM
SF-268 CNS
  TGI: 3.63 µM
SK-OV-3 ovarian
  TGI: 3.58 µM
TK-10 renal
  TGI: 2.93 µM
UACC-257 melanoma
  TGI: 3.97 µM

## C[C@@H]1Cc2c(ccc3[nH]ncc23)[C@@H](c2ccc(NC3CN(CCCF)C3)cn2)N1CC(F)(F)F
786-0 renal
  GI50: 14.4 µM
  TGI: 28.4 µM
A549 NSCLC
  GI50: 30.8 µM
  TGI: > 100 µM
HOP-92 NSCLC
  GI50: 3.1 µM
  TGI: 20.1 µM
K-562 leukemia
  GI50: 19.4 µM
  TGI: 54.9 µM
NCI-H226 lung
  GI50: 39 µM
  TGI: > 100 µM
NCI/ADR-RES ovarian
  GI50: 32.3 µM
  TGI: > 100 µM
SF-268 CNS
  GI50: 22.3 µM
  TGI: 79.4 µM
SK-OV-3 ovarian
  GI50: 14.3 µM
  TGI: 37.1 µM
TK-10 renal
  GI50: 17.9 µM
  TGI: 44.7 µM
UACC-257 melanoma
  GI50: 17.9 µM
  TGI: 38.3 µM

## Cc1nc2sc(C(=O)Nc3ccccc3)c(N)c2cc1C(=O)c1ccccc1
786-0 renal
  GI50: 1.81 µM
  TGI: > 50 µM
A549 NSCLC
  GI50: 0.853 µM
  TGI: > 50 µM
HOP-92 NSCLC
  GI50: 9.47 µM
  TGI: > 50 µM
K-562 leukemia
  GI50: 1.69 µM
  TGI: > 50 µM
NCI-H226 lung
  GI50: 16.9 µM
  TGI: > 50 µM
NCI/ADR-RES ovarian
  GI50: 1.9 µM
  TGI: > 50 µM
SF-268 CNS
  GI50: 3.5 µM
  TGI: > 50 µM
SK-OV-3 ovarian
  GI50: 2.35 µM
  TGI: > 50 µM
TK-10 renal
  GI50: 3.09 µM
  TGI: > 50 µM
UACC-257 melanoma
  GI50: 31.5 µM
  TGI: > 50 µM

## COC(=O)Nc1nc2ccc(C(=O)c3cccs3)cc2[nH]1
786-0 renal
  GI50: 0.261 µM
  TGI: 29.8 µM and > 100 µM
A549 NSCLC
  GI50: 0.239 µM
  TGI: 55.8 µM and > 100 µM
HOP-92 NSCLC
  GI50: > 100 µM
K-562 leukemia
  TGI: 42.5 µM
NCI-H226 lung
  GI50: 0.275 µM
  TGI: 1.26 µM and 2.54 µM
NCI/ADR-RES ovarian
  GI50: 0.0388 µM and 0.0664 µM
  TGI: > 100 µM
SF-268 CNS
  GI50: 0.452 µM
  TGI: 60.7 µM and > 100 µM
SK-OV-3 ovarian
  GI50: 0.347 µM
TK-10 renal
  TGI: 60.4 µM and > 100 µM
UACC-257 melanoma
  GI50: > 100 µM
  TGI: > 100 µM

## N/C(CC(=O)NOC(=O)c1ccccc1)=N/OC(=O)c1ccccc1
786-0 renal
  TGI: > 100 µM
A549 NSCLC
  TGI: > 100 µM
HOP-92 NSCLC
  TGI: > 100 µM
K-562 leukemia
  TGI: 71.7 µM
NCI-H226 lung
  TGI: 92.5 µM
NCI/ADR-RES ovarian
  TGI: > 100 µM
SF-268 CNS
  TGI: 75.1 µM
SK-OV-3 ovarian
  TGI: 97.3 µM
TK-10 renal
  TGI: > 100 µM
UACC-257 melanoma
  TGI: > 100 µM

## O=C(/C=C/c1ccc(Cl)cc1Cl)c1ccc(Cl)cc1Cl
786-0 renal
  GI50: 22 µM
  TGI: 61.8 µM
A549 NSCLC
  GI50: 19.9 µM
  TGI: 47.2 µM
HOP-92 NSCLC
  GI50: 50.8 µM
  TGI: > 76.1 µM
K-562 leukemia
  GI50: 10.4 µM
  TGI: 31.4 µM
NCI-H226 lung
  GI50: 19.9 µM
  TGI: 40.8 µM
NCI/ADR-RES ovarian
  GI50: 25.1 µM
  TGI: > 77.2 µM
SF-268 CNS
  GI50: > 63.3 µM
  TGI: > 100 µM
SK-OV-3 ovarian
  GI50: 37.8 µM
  TGI: > 100 µM
TK-10 renal
  GI50: 28 µM
  TGI: > 73.2 µM
UACC-257 melanoma
  GI50: 21.7 µM
  TGI: 55.3 µM
